Measurements taken from PubChem BioAssay (NCI).
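GI50 marks 50% less growth. TGI: total growth inhibition.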

Assays:
Assay in all cases: DTP human tumour cell line panel, 384-well format
[1] = test system: HCC-2998 colon
[2] = test system: U251 glioblastoma
[3] = test system: NCI-H226 lung
[4] = test system: UACC-62 melanoma
[5] = test system: LOX IMVI melanoma
[6] = test system: MDA-MB-231 breast
[7] = test system: SR leukemia
[8] = test system: T-47D breast
[9] = test system: A549 NSCLC
[10] = test system: EKVX NSCLC
[11] = test system: HOP-92 NSCLC
[12] = test system: 786-0 renal
[13] = test system: SNB-19 CNS
[14] = test system: NCI-H522 lung
[15] = test system: M14 melanoma
[16] = test system: SF-295 CNS
[17] = test system: CCRF-CEM leukemia
[18] = test system: NCI-H23 lung
[19] = test system: OVCAR-4 ovarian
[20] = test system: NCI-H322M lung
[21] = test system: HOP-62 NSCLC
[22] = test system: RPMI-8226 leukemia
[23] = test system: COLO 205 colon
[24] = test system: NCI/ADR-RES ovarian
[25] = test system: SW-620 colon
[26] = test system: UACC-257 melanoma
[27] = test system: OVCAR-3 ovarian
[28] = test system: SF-268 CNS
[29] = test system: KM12 colon
[30] = test system: HT29 colon
[31] = test system: HCT-116 colon
[32] = test system: UO-31 renal
[33] = test system: NCI-H460 NSCLC
[34] = test system: TK-10 renal
[35] = test system: MDA-MB-435 melanoma
[36] = test system: MOLT-4 leukemia
[37] = test system: MALME-3M melanoma
[38] = test system: HS 578T breast
[39] = test system: SNB-75 CNS
[40] = test system: RXF 393 renal
[41] = test system: CAKI-1 renal
[42] = test system: SK-MEL-28 melanoma
[43] = test system: K-562 leukemia
[44] = test system: OVCAR-8 ovarian
[45] = test system: A498 renal
[46] = test system: SN12C renal
[47] = test system: BT-549 breast
[48] = test system: MDA-MB-468 breast
[49] = test system: HCT-15 colon
[50] = test system: PC-3 prostate
[51] = test system: ACHN renal
[52] = test system: SK-MEL-5 melanoma
[53] = test system: MCF7 breast
[54] = test system: IGROV1 ovarian
[55] = test system: SF-539 CNS
[56] = test system: HL-60(TB) leukemia
[57] = test system: DU-145 prostate
[58] = test system: SK-OV-3 ovarian

## CCS(=O)(=O)Nc1ccc(Oc2ccc(F)cc2F)c(-c2cn(C)c(=O)c3[nH]ccc23)c1
[1]
  GI50: < 10 nM
  TGI: 40.4 nM
[2]
  GI50: 57.1 nM
  TGI: 1800 nM
[3]
  GI50: < 10 nM
  TGI: 796 nM
[4]
  GI50: < 10 nM
  TGI: 583 nM
[5]
  GI50: < 10 nM
  TGI: 14.4 nM
[6]
  GI50: < 10 nM
  TGI: 2850 nM
[7]
  GI50: < 10 nM
  TGI: < 10 nM
[8]
  GI50: 24.6 nM
  TGI: 1430 nM
[9]
  GI50: 34.6 nM
  TGI: 10600 nM
[10]
  GI50: 397 nM
  TGI: 8660 nM
[11]
  GI50: 10.9 nM
  TGI: 1520 nM
[12]
  GI50: < 10 nM
  TGI: 2120 nM
[13]
  GI50: 40.7 nM
  TGI: 12100 nM
[14]
  GI50: < 10 nM
  TGI: 114 nM
[15]
  GI50: 12.7 nM
  TGI: 10200 nM
[16]
  GI50: 120 nM
  TGI: 4140 nM
[17]
  GI50: < 10 nM
  TGI: 353 nM
[18]
  GI50: 10.5 nM
  TGI: 237 nM
[19]
  GI50: < 10 nM
  TGI: 79.3 nM
[20]
  GI50: < 10 nM
  TGI: 1610 nM
[21]
  GI50: < 10 nM
  TGI: 337 nM
[22]
  GI50: < 10 nM
  TGI: < 10 nM
[23]
  GI50: < 10 nM
  TGI: 724 nM
[24]
  GI50: 82.6 nM
  TGI: 1810 nM
[25]
  GI50: 174 nM
  TGI: 1950 nM
[26]
  GI50: 12.8 nM
  TGI: 1890 nM
[27]
  GI50: < 10 nM
  TGI: 156 nM
[28]
  GI50: 67.4 nM
  TGI: 2740 nM
[29]
  GI50: 10 nM
  TGI: 1270 nM
[30]
  GI50: < 10 nM
  TGI: 11000 nM
[31]
  GI50: 11.2 nM
  TGI: 1450 nM
[32]
  GI50: 38.2 nM
  TGI: 10300 nM
[33]
  GI50: 30.5 nM
  TGI: 2140 nM
[34]
  GI50: < 10 nM
  TGI: 384 nM
[35]
  GI50: 140 nM
  TGI: 11500 nM
[36]
  GI50: < 10 nM
  TGI: 124 nM
[37]
  GI50: 11.5 nM
  TGI: 779 nM
[38]
  GI50: < 10 nM
  TGI: 14.5 nM
[39]
  GI50: 112 nM
  TGI: 5400 nM
[40]
  GI50: 308 nM
  TGI: 2490 nM
[41]
  GI50: < 10 nM
  TGI: 475 nM
[42]
  GI50: 50.2 nM
  TGI: 2090 nM
[43]
  GI50: < 10 nM
  TGI: 1970 nM
[44]
  GI50: < 10 nM
  TGI: 131 nM
[45]
  GI50: 21 nM
  TGI: 3250 nM
[46]
  GI50: 24.8 nM
  TGI: 3290 nM
[47]
  GI50: < 10 nM
  TGI: 172 nM
[48]
  GI50: 10.4 nM
  TGI: 429 nM
[49]
  GI50: < 10 nM
  TGI: 1050 nM
[50]
  GI50: 22.3 nM
  TGI: 10200 nM
[51]
  GI50: 59.7 nM
  TGI: 10100 nM
[52]
  GI50: < 10 nM
  TGI: 876 nM
[53]
  GI50: < 10 nM
  TGI: 1180 nM
[54]
  GI50: < 10 nM
  TGI: 196 nM
[55]
  GI50: 27.2 nM
  TGI: 3200 nM
[56]
  GI50: < 10 nM
  TGI: < 10 nM
[57]
  GI50: 174 nM
  TGI: 12500 nM
[58]
  GI50: < 10 nM
  TGI: 504 nM
